≈ marks a conversion by molar mass, not a printed value. Where “and” joins values, the source holds several entries; their conditions need not be identical. Identical values can stand only once.
Key:
[1] = system: ROS produced by human blood phagocytes; assay: Oxidative burst, luminol-enhanced chemiluminescence in whole blood; format: cell-based; settings: serum opsonized zymosan
Experimental: Formation of the reactive oxygen species (ROS) in whole blood, during the oxidative burst was measured by the luminol-enhanced chemiluminescence assay. In brief, three concentrations of each compound (1.0, 10 and 100 μg/mL) were prepared in 25 μL of Hank's Balanced salt solution containing calcium chloride and magnesium sulfate (HBSS^++) in a half area 96-well white flat-bottomed plate (Sigma Aldrich, Steinheim, Germany) in a final volume of 100 μL. Then 25 μL of whole blood diluted 1:50 in suspension of HBSS^++ was added.
Positive and negative controls and blank wells were included. Cells and compounds were incubated for 30 minutes at 37° C., then 25 μL luminol [3-aminophthalhydrazide] (Research Organics Cleveland, Ohio, USA), were added into each well followed by 25 μL of serum opsonized zymosan (Saccharomyces cerevisiae origin) purchased from Fluka, Buchs (Switzerland) was added except for negative and blank wells. The ROS chemiluminescence kinetic was monitored with a luminometer from Labsystems (Helsinki, Finland), for 50 minutes in the repeated scan mode. Peak and total integral chemiluminescence readings were expressed in the relative light unit.

[2] = system: NO produced by mouse macrophages J774.2 cell line; assay: Nitrite accumulation in LPS-stimulated J774.2 macrophages (Griess method); format: cell-based; settings: LPS-stimulated J774.2, 24 hours
Experimental: The mouse macrophage cell line J774.2 obtained from ECACC, Salisbury, Wiltshire (UK) was cultured in T75 flasks in complete DMEM containing 10% fetal bovine serum and supplemented with 1% streptomycin/penicillin. Flasks were kept at 37° C. in the atmosphere of humidified air containing 5% CO2. Cell were then seeded in 24 well (10^6 cells/mL) and nitric oxide synthase (NOS-2) in the macrophages was induced by addition of 20 μg/mL E. coli lipopolysaccharide (DIFCO Laboratories, Michigan, USA). The test compounds were added at a concentration of 25 μg/mL soon after LPS stimulation and incubated at 37° C. in 5% CO2. Cell culture supernatant was collected after 24 hours. Nitrite accumulation in J774.2 cell culture supernatant was measured using the Griess method, where 50 μL of 1% sulphanilamide in 2.5% phosphoric acid, followed by 50 μL of 0.1% naphtyl-ethylene diamine dihydrochloride in 2.5% phosphoric acid were added to 50 μL culture medium. After 10 minutes of incubation at room temperature the absorbance at 550 nm was read. Micromolar concentrations of nitrite were calculated from standard curve constructed with sodium nitrite a reference compound. The results were expressed as means±SD of duplicate readings.

[3] = system: T-cell proliferation; assay: T-cell proliferation assay (PHA-stimulated PBMNCs, 3H-thymidine incorporation); format: cell-based, human; parameters: unit not given here; settings: PHA 5 μg/mL stimulated PBMNCs
Experimental: The diluted blood was then layered onto lymphocyte separation medium (MP Biomedicals, Inc., Ohio, USA) and centrifuged at 400 g for 20 min at 25° C. […] Plates were then incubated at 37° C. in a humidified atmosphere of 5% CO2 in air for 72 hours. To each well, 0.5 μCi [methyl ^3H]-thymidine (Amersham Place Little Chalfont, Buckinghamshire, UK) was added for an additional 18 hours. Cells were harvested using a cell harvester (Inotech, Dottikon, Switzerland), and incorporation and level of radioactivity was measured by a liquid scintillation counter (Beckman coulter, LS 6500, Fullerton, Calif., USA).

[4] = system: IL-2 production; assay: IL-2 production by PHA/PMA stimulated PBMCs (ELISA); format: cell-based, human; settings: for IC50: experimental IL-2 IC50 listed in Table 3
Experimental: The PBMCs were cultured in a 96-well flat-bottomed plate (1.0×10^5 cell/well) in the presence or absence of three concentrations of test compounds (1.0, 5.0 and 20 μg/mL), and phytohemagglutinin (PHA) phorbol myristate acetate (PMA) in a final concentration of 5 ng/mL and 20 ng/mL, respectively. After an incubation period of 18 h at 37° C. in a humidified atmosphere of 5% CO2 in air, the supernatant was collected for IL-2 determination. Interleukin-2 levels were measured by using enzyme-linked immunosorbent assay (ELISA) development kit (R&D systems, Minneapolis, Minn., USA). The assay was performed according to the manufacturer's instructions. Briefly, a 96-well flat-bottomed ELISA plate was coated with 4.0 μg/mL mouse anti-human IL-2, in PBS, pH 7.4. Then, re-combinant human IL-2 standards and culture supernatant samples were added and incubated for 2 h followed by washing steps and then the addition of biotinylated goat anti-human IL-2. After an incubation period of 2 h at room temperature, the plates were again washed and streptavidin conjugated horse raddish peroxidase was added and incubated for additional 20 min at room temperature. After the final washes, an enzyme substrate solution of H2O2 and tetra methyl benzidine (1:1 v/v) was added and the color was allowed to develop at room temperature in the dark. The plates were then read at 450 nm in a plate reader (DIAReader GMBH, Wr. Neudorf, Austria). The results were analyzed using Microsoft Excel.

[5] = system: NO produced by mouse macrophages J774.2 cell line; assay: Nitrite accumulation in LPS-stimulated J774.2 macrophages (Griess method); format: cell-based
[6] = system: 3T3 NIH mouse embryo fibroblast cell line; assay: MTT cytotoxicity assay; settings: for Cytotoxicity IC50: 3T3 NIH cells, 48 h; for interference with the growth of 3T3 cells: up to 20 μg/mL
Experimental: The 3T3-NIH cells were suspended in Dulbecco's Modified Eagle's Medium (DMEM) formulated with 10% FBS. Using flat bottomed plates, cells were plated at a concentration of 6×10^4 cells/mL and incubated for 24 h at 37° C. and 5% CO2 environment. […] Following exposure to each compound, cell viability was assessed by using 0.5 mg/mL of MTT {3-(4,5-dimethylthiazol-2-yl)-2,5-diphenyltetrazolium bromide for 4 h followed by the removal of supernatant and addition of DMSO to solubilize the formazan complex. The plates were read at 540 nm after one minute shaking and readings were processed using MS Excel software. The results were expressed as means±SD of triplicate readings.

[7] = system: IL-4 production; assay: IL-4 production by PHA stimulated PBMNCs (ELISA); format: cell-based, human; settings: 18 h
Experimental: The PBMNCs were cultured in a 96-well flat-bottomed plate (2.0×10^6 cell/mL) in the presence or absence of three concentrations of test compounds (1.0, 5.0, and 25 μg/mL), and phytohemagglutinin (PHA) in a final concentration of 7.5 μg/mL. After an incubation period of 18 h at 37° C. in 5% CO2, supernatant was collected for IL-4 determination. Interleukin-4 levels were measured by using enzyme-linked immunosorbent assay (ELISA) kit (Diaclone, France). The assay was performed according to the manufacturer's instructions. Briefly, in a 96-well ELISA plate which was coated with monoclonal mouse anti-human IL-4, 100 μl recombinant human IL-4 standards and culture supernatants samples were added. The plates were incubated for 2 hours at room temperature and washed three times with wash buffer, followed by the addition of biotinylated goat anti-human IL-4 and further incubated for 1 hour at room temperature. The plates were again washed and streptavidin conjugated horse raddish peroxidase was added and incubated for an additional 20 minutes at room temperature. After three final washes, the enzyme substrate solution was added and incubated for 12 to 15 minutes to allow color development at room temperature in the dark. Then stop solution was added and the plates were read at 450 nm in a plate reader (DIAReader GMBH, Wr. Neudorf, Austria). The results were analyzed using Microsoft Excel.

CCOc1cccc(-c2nc3ccccc3s2)c1O [Compound 1]
IC50 (μg/mL) for phagocytes ROS [1]: >100 µg/mL | % of NO inhibited by 25 μg/mL of compound [2]: 26.5 ± 0.0%

c1ccc2cc(-c3nc4ccccc4s3)ccc2c1 [Compound 3]
IC50 (μg/mL) for phagocytes ROS [1]: >100 µg/mL | % of NO inhibited by 25 μg/mL of compound [2]: 20.5 ± 5.9%

Oc1ccc(-c2nc3ccccc3s2)cc1 [Compound 4]
IC50 T-cell proliferation [3]: 2.3±0.1 | IC50 [4]: 2.9 µg/mL (≈ 12.8 µM) | IC50 (μg/mL) for phagocytes ROS [1]: >100 µg/mL | % of NO inhibited by 25 μg/mL of compound [2]: 56.1±0.6% | IC50 NO production [5]: 7.9 ± 0.9 µg/mL (≈ 34.8 µM) | Cytotoxicity IC50 [6]: >25 µg/mL | interference with the growth of 3T3 cells [6]: did not interfere with the growth of 3T3 cells

Oc1cccc(-c2nc3ccccc3s2)c1 [Compound 5]
IC50 T-cell proliferation [3]: 2.7±0.2 | IC50 IL-2 production ([4]; PHA/PMA stimulated PBMCs, 18 h incubation): 6.0 µg/mL (≈ 26.4 µM) | IC50 (μg/mL) for phagocytes ROS [1]: >100 µg/mL | % of NO inhibited by 25 μg/mL of compound [2]: 44.5 ± 0.3% | IC50 IL-4 production [7]: 8.9 ± 0.6 µg/mL (≈ 39.2 µM) | Cytotoxicity IC50 [6]: >20 µg/mL | interference with the growth of 3T3 cells [6]: did not interfere with the growth of 3T3 cells

Oc1ccc(Cl)cc1-c1nc2ccccc2s1 [Compound 6]
IC50 (μg/mL) for phagocytes ROS [1]: 34.3 ± 4.4 µg/mL | % of NO inhibited by 25 μg/mL of compound [2]: 35.5 ± 7.4%

Cc1ccccc1-c1nc2ccccc2s1 [Compound 7]
IC50 (μg/mL) for phagocytes ROS [1]: >100 µg/mL | % of NO inhibited by 25 μg/mL of compound [2]: 5.4 ± 2.8%

Oc1ccc(O)c(-c2nc3ccccc3s2)c1 [Compound 8]
IC50 T-cell proliferation [3]: 1.1±0.1 | IC50 [4]: <1 µg/mL | IC50 (μg/mL) for phagocytes ROS [1]: <1 µg/mL | % of NO inhibited by 25 μg/mL of compound [2]: 91.1±0.7% | IC50 IL-4 production [7]: 9.8 ± 0.6 µg/mL (≈ 40.3 µM) | IC50 NO production [5]: < 5 µg/mL | Cytotoxicity IC50 [6]: >20 µg/mL | interference with the growth of 3T3 cells [6]: did not interfere with the growth of 3T3 cells

Oc1ccc(-c2nc3ccccc3s2)cc1O [Compound 9]
IC50 T-cell proliferation [3]: 1.2±0.0 | IC50 (μg/mL) for phagocytes ROS [1]: 3.7 ± 0.2 µg/mL | % of NO inhibited by 25 μg/mL of compound [2]: 58.5±3.3% | IC50 NO production [5]: 12.6 ± 2.1 µg/mL (≈ 51.8 µM) | Cytotoxicity IC50 [6]: 11.1 µg/mL and 11.4 ± 1.8 µg/mL | interference with the growth of 3T3 cells [6]: did not interfere with the growth of 3T3 cells

Oc1cccc(-c2nc3ccccc3s2)c1O [Compound 10]
IC50 T-cell proliferation [3]: 0.99±0.1 | IC50 (μg/mL) for phagocytes ROS [1]: 1.1 ± 0.1 µg/mL | % of NO inhibited by 25 μg/mL of compound [2]: 14.3 ± 1.0% | interference with the growth of 3T3 cells [6]: did not interfere with the growth of 3T3 cells

Clc1ccc(-c2nc3ccccc3s2)c(Cl)c1 [Compound 11]
IC50 (μg/mL) for phagocytes ROS [1]: >100 µg/mL | % of NO inhibited by 25 μg/mL of compound [2]: −7.4 ± 3.0%

COc1ccc(-c2nc3ccccc3s2)cc1OC [Compound 12]
IC50 T-cell proliferation [3]: 1.0±0.1 | IC50 (μg/mL) for phagocytes ROS [1]: >100 µg/mL | % of NO inhibited by 25 μg/mL of compound [2]: −1.5 ± 0.6% | IC50 IL-4 production [7]: < 1.0 µg/mL

Oc1ccc(-c2nc3ccccc3s2)c(O)c1 [Compound 13]
IC50 (μg/mL) for phagocytes ROS [1]: 11.1 ± 0.9 µg/mL | % of NO inhibited by 25 μg/mL of compound [2]: 32.7 ± 8.3% | Cytotoxicity IC50 [6]: 11.5 ± 0.0 µg/mL | interference with the growth of 3T3 cells [6]: did not interfere with the growth of 3T3 cells

CN(C)c1ccc(-c2nc3ccccc3s2)cc1 [Compound 14]
IC50 (μg/mL) for phagocytes ROS [1]: 11.8 ± 1.2 µg/mL | % of NO inhibited by 25 μg/mL of compound [2]: 16.8 ± 0.8% | Cytotoxicity IC50 [6]: >25 µg/mL | interference with the growth of 3T3 cells [6]: did not interfere with the growth of 3T3 cells
